Results on eight molecules are retold here after article PMC3789677, “Select Dietary Phytochemicals Function as Inhibitors of COX-1 but Not COX-2” (PLoS ONE, 2013).

Where only a bound is given, the exact number is not on record here.

For orientation: IC50 means the midpoint of a concentration-inhibition curve. A high value points to a need for much substance.

One assay concerns the target T1, COX-1 (Ovis aries, UniProt P05979).
T1 construct: purchased Cayman Chemical Company (Ann Arbor, MI)
T1 sequence (P05979 25-600): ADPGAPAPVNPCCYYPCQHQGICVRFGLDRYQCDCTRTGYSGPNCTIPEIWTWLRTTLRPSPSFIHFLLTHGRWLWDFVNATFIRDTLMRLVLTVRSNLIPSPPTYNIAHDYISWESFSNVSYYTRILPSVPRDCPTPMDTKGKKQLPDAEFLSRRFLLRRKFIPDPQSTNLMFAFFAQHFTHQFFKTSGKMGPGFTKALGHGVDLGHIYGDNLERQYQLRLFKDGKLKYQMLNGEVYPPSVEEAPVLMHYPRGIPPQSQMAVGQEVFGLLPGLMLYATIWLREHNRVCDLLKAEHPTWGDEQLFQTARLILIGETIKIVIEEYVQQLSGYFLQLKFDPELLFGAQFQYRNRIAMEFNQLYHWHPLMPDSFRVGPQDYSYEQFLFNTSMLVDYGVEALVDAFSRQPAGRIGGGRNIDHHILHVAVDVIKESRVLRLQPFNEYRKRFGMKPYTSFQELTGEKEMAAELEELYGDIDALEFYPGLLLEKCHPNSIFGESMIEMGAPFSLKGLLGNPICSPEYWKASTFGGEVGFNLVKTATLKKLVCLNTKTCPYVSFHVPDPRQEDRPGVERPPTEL
Nature of the assay: In vitro COX enzyme assay (COX Inhibitor Screening Kit, Cayman). It is filed as biochemical. Particulars: means ± S.E.M. of 3 independent experiments. As to the method: (§1) COX activity was evaluated using a COX Inhibitor Screening Kit from Cayman Chemical Company (Ann Arbor, MI) according to the manufacturer’s instructions.

The target of a further assay is T2, COX-2 (Homo sapiens, UniProt P35354).
T2 construct: purchased Cayman Chemical Company (Ann Arbor, MI)
T2 sequence (P35354 18-604): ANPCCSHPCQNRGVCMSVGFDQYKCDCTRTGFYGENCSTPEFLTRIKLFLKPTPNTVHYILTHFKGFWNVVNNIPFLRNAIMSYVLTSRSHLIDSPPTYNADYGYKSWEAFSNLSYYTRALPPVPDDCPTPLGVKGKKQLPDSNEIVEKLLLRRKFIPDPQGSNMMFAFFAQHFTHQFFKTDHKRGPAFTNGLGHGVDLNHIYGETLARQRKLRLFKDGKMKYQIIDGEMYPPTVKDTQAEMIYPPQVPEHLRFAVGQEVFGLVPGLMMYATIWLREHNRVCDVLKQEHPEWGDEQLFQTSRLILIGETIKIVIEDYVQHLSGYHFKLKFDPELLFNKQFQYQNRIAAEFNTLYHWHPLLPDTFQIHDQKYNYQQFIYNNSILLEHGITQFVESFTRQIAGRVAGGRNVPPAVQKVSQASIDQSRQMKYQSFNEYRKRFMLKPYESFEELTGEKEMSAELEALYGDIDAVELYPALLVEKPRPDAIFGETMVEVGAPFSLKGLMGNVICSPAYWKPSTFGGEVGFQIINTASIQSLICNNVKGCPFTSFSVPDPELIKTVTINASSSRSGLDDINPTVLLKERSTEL
The assay is described as above. In kind it is biochemical. To be noted: means ± S.E.M. of 3 independent experiments. As to the method: as §1

Assay [1] relates to human umbilical vein endothelial cells (HUVECs). Nature of the assay: TXB2 and 6-keto PGF1α assay in HUVECs (ratio as cardiovascular toxicity biomarker). In kind it is cell-based. Particulars: 3 µM.
Experimental: Cells (6×10^5) were seeded in a six-well plate in the presence of 10% FBS. At 70-80% confluence, cells were pretreated with vehicle or individual compounds in 1 mL fresh medium for 2 h. […] Supernatant fractions were collected for prostaglandin measurement using enzyme immunoassay kits (Cayman Chemical Company).
Figure 2 Effects of dietary phytochemicals on (A) TXB2 and (B) 6-keto-PGF1α under physiological conditions. HUVECs were seeded in a six-well-plate (6×10^5 cells per well). At 70-80% confluence, 1 mL fresh medium containing DMSO or 3 µM of each individual compound was added and cells were further incubated for 8 h. Supernatant fractions were collected for prostaglandin measurement. (C) The ratio of TXB2/6-keto-PGF1α. Data are presented as means ± S.E.M (n = 4) and the asterisk(s) indicate a significant (*, p < 0.05; ***, p < 0.001) difference versus the vehicle control group.

At COX-1, `O=c1cc(-c2ccc(O)cc2)oc2cc(O)cc(O)c12` [Apigenin] yielded an IC50 of 94.1 ± 12.3 µM.
The same measure, in the same setting: then `COc1cc(/C=C/C(=O)CC(=O)/C=C/c2ccc(O)c(OC)c2)ccc1O` [Curcumin], with 330 ± 34.3 µM.
As for `O=C(O[C@@H]1Cc2c(O)cc(O)cc2O[C@@H]1c1cc(O)c(O)c(O)c1)c1cc(O)c(O)c(O)c1` [EGCG], the IC50 worked out at 17.9 ± 4.2 µM against COX-1 and 28.6 ± 3.8 µM on COX-2. Besides, the “ratio of TXB2/6-keto-PGF1α” value is listed as “most potent inhibitory effect” in assay [1] (physiological conditions, 8 h (Figure 2)) and “most potent inhibitory effect” in assay [1] (pro-inflammatory conditions, 2 h pretreatment then IL-1β 17.5 ng/mL for 8 h (Figure 3)).
For the molecule `O=c1c(-c2ccc(O)cc2)coc2cc(O)cc(O)c12` [Genistein], the IC50 against COX-1 was 9.9 ± 2.3 µM; on COX-2, 256 ± 35.7 µM.
For `O=c1c(O)c(-c2ccc(O)cc2)oc2cc(O)cc(O)c12` [Kaempferol], in that order: 111 ± 7.5 µM and 236 ± 19.7 µM.
The like results for `O=C1C[C@@H](c2ccc(O)cc2)Oc2cc(O)cc(O)c21` [Naringenin] were, in that order, over 400 µM and over 400 µM.
For `O=c1c(O)c(-c2ccc(O)c(O)c2)oc2cc(O)cc(O)c12` [Quercetin], in that order: over 400 µM and over 400 µM.
The molecule `Oc1ccc(/C=C/c2cc(O)cc(O)c2)cc1` [Resveratrol] registered an IC50 at COX-1 of 3.4 ± 1.1 µM.
